Assay results as given in publication PMC3514216, “SRC Homology 2 Domain Binding Sites in Insulin, IGF-1 and FGF receptor mediated signaling networks reveal an extensive potential interactome” (Cell Communication and Signaling : CCS, 2012).

Tested on: panel of 50 SH2 domains
Test: SPOT peptide array probed with each of 50 GST-SH2 domains
Assay type: binding
Details: SPOT192 peptide array; for SH2 Domains >3X: list of GST-SH2 domains with spot intensity >3X array mean (array-positive); for 2X < SH2 Domains < 3X: list of GST-SH2 domains with spot intensity between 2X and 3X array mean (indeterminate range)
Excerpt: The use of addressable peptide arrays is a reproducible and semi-quantitative approach that has been extensively validated for studying protein interactions with peptide ligands. To investigate connections between SH2 domain proteins and their putative phosphorylated docking sites on cell surface receptors, we developed addressable arrays consisting of 192 phosphotyrosine peptides. This peptide set was assembled using 71 phosphotyrosine peptide motifs corresponding to all of the cytoplasmic tyrosine residues within the FGF receptors (FGFR1-4), insulin receptor (InsR) and IGF-1 receptor (IGF-1R) (Figure 1A). Activation of these receptors results in the phosphorylation of associated scaffold proteins, and so 75 phosphotyrosine peptides corresponding to a comprehensive list of tyrosine residues within insulin receptor substrates (IRS-1 and IRS-2) and fibroblast receptor substrates (FRS-2 and FRS-3) were included. In addition, 33 phosphotyrosine peptides were incorporated from the downstream signaling proteins PLC-γ1, p130Cas (BCAR1) and p62DOK1. […] These control peptides provide a reference and establish the empirical cut-off for designated binding interactions (Table 1). No discrimination was made against peptides on the basis of reported phosphorylation state in order to examine a diverse and unbiased set of motifs. The resulting set of 192 phosphotyrosine peptides and their corresponding position in the proteins of origin is noted in Additional file 1: Table S1. Addressable arrays were synthesized as membrane-bound 11-mer peptides using the SPOT synthesis technique. While the majority of SH2 domains recognize residues C-terminal to the phosphotyrosine in their cognate peptide ligands, additional contacts between SH2 domains and residues N-terminal to the phosphotyrosine are observed for the SH2 domain of Sh2d1a (SAP) and cannot be ruled out in other cases. Peptides were synthesized with six flanking residues C-terminal to the phosphotyrosine and four residues N-terminal to the phosphotyrosine.
To assess the potential network of SH2 domain interactions we selected 50 SH2 domains representing 28 of the 38 families of SH2 domains (Figure 1B) all of which we have previously shown can be expressed and purified. These include a number of extensively studied SH2 domains (Src, Grb2, PLCγ), as well as a number of less studied SH2 domains from proteins such as Shd, She, Shf, Slnk (Sh2d6), Sh2d1a (SAP), Sh2d1b (Eat-2), and Brdg1. To address potential variability in specificity within families we employed all members from the SHB, CRK, GRB2, SRC and ABL families (families are indicated with complete Capitalized lettering).
SH2 domains were arrayed as GST fusion proteins and detected using anti-GST primary antibodies and near-infrared labeled secondary antibodies. In an effort to present a dataset with minimal false positives, we chose an empirical cutoff based on the array average across all peptide spots to classify interactions (Figure 1A). In cases where the intensity of the signal for an individual SH2-domain binding event exceeded the mean intensity of all the peptides on the membrane by three-fold were scored as “array positives” [22]. Non-binding was judged in cases where the intensity of a spot was less than the mean intensity of all spots on the membrane and these were scored as “array negatives”. Peptides with signal intensities between 1X and 3X mean were scored as “indeterminate” and ascribed as neither array positive binding interactions nor array-negative non-binders. […] This signature may be indicative of promiscuity differences between phosphopeptides or there may be a subset of peptides which interact in a nonspecific fashion with either the GST fusion tag or one of the antibodies used for detection, resulting in false positives. […]

Substance | SH2 Domains >3X | 2X < SH2 Domains < 3X
AACDpYESCATA [A01] | PI3K1_C | CRKL, HCK
ADDGpYMPMTPG [D18] | HCK, SRC | PI3K1_C
ADNDpYIIPLPD [A07] | BRK, DAPP1, PLCG2_N, PLCG2_C, SRC, VAV1 | HCK, LCK, LYN, PI3K1_N, RIN1, SH2D1B, YES
AEDSpYGLVAPA [D06] | FGR, FYN, HCK, LCK, LYN, SH2D1B, SHC1, SHIP1, SRC, YES | BLK
AEDVpYDVPPPA [A04] | CRK, CRKL, HCK, NCK1, SRC | FYN, LYN, YES
AEPDpYGALYEG [H01] | FGR, FYN, HCK, LYN, SH2D1B, SHC1, SHIP1, SLNK, SRC, YES, ZAP70_N | BLK, BMX, LCK
AEPQpYEEIPIY [A10] | BLK, BRK, FER, FGR, HCK, LYN, NCK1, PLCG2_C, SHC1, SRC, YES | ABL1, BMX, DAPP1, FYN, LCK, RIN1, SH2D1B, SRC
AKHKpYLIALYT [D02] | BRDG1, BRK | BCAR3, BMX, FER, PLCG2_N, PTPN11_C, RIN1, SHF, TENC1
AKTGpYENFIHL [B10] | GADS, GRB2, GRB7, MIST, PI3K1_N, SH2D2A, SH3BP2, TENC1 | BRDG1, BRK
ALLNpYENLPSL [G05] | ABL1, ABL2, CRK, FER, GADS, GRAP, GRB2, GRB7, PI3K1_C, SH2D2A, SH3BP2, TENC1 | BRK, PI3K1_N
APVSpYADMRTG [C21] |  | MIST
ARLEpYYENEKK [B19] | GRB7, MIST, SH3BP2 | SH2D2A, SHF, SHD
ATDDpYAVPPPR [A02/H23] | CRK, CRKL, HCK | SRC
ATDLpYQVPPGP [H08] | CRK | CRKL
AYHPpYPEDYGD [D16] | BMX | MATK, SLNK
CGRSpYRRVSGD [D12] | BCAR3 | BRDG1, ITK, MIST, PLCG2_N, SHB, SHF, SYK_C, TENC1
CLRRpYGYDSNL [F22] | BCAR3, BMX, BRDG1, CRK, CRKL, DAPP1, FER, GRB7, MATK, MIST, PLCG2_N, SHB, SHF, SHD, TENC1 | ITK, PLCG2_C, PTPN11_C, RIN1, SH2D2A, SH3BP2
CTGDpYMNMSPV [C09] |  | PI3K1_C
DDPSpYVNVQNL [A06] | GADS, GRAP, GRB2, SH2D1B | 
DGMApYLNAKKF [A23] | BCAR3, BMX, BRDG1, FER, GRB2, MIST, PTPN11_N, PTPN11_C, RIN1, Sh2b, SHF, SHD, TENC1 | BRK, DAPP1, FGR, ITK, MATK, PI3K1_N, PI3K1_C, PLCG2_N, PLCG2_C, SH3BP2, SHB, SHE, YES
DGPLpYVIVEYA [E06] | ITK, MIST, RASA1_N, SHB, SHF, SHE, SYK_C | SHD, TENC1
DLKSpYLRSLRP [A22] | BCAR3, BMX, BRDG1, FER, MIST, PLCG2_N, Sh2b, SHB, SHF, TENC1 | BRK, ITK, MATK, PLCG2_C, PTPN11_C, RIN1, SHD, SYK_C
DLSApYASISFQ [C23] | PTPN11_N, PTPN11_C | SH2D1B, SHD, SHE
DNLPpYVQILKT [E03] | BRDG1, MIST, PI3K1_N, PTPN11_C, Sh2b, TENC1 | BCAR3, FER, GRAP, MATK, PI3K1_C, PTPN11_N, RIN1, SHD
DPMPpYEPALPQ [F05] | FYN, LYN, SHIP1, YES | FGR, LCK, SH2D1B, SHC1
DPNGpYMMMSPS [C07] | PI3K1_C | 
DSDQpYVLMSSP [D23] | FYN, LYN, PI3K1_N, PI3K1_C, SHIP1 | BLK, FGR, LCK, SH2D1B

Substance | SH2 Domains >3X | 2X < SH2 Domains < 3X
EDDGpYDVPKPP [A03] | CRK, CRKL, FGR, HCK, SHIP1, SRC, YES | ABL1, BLK, FYN, LYN
EDLSpYGDVPPG [B23] | ABL1, BRK, FGR, FYN, LCK, LYN, SH2D1B, SHC1, SHIP1, SLNK, YES | BLK, HCK, GRB7
EDPIpYDEPEGL [H19] | ABL1, BLK, HCK, NCK1, SHC1, SLNK, SRC | BMX, LCK, LYN, YES
EDSGpYMRMWAG [D20] | FYN, PI3K1_C | LCK
EDYDpYVHLQGK [H13] | FYN, LCK, LYN, MIST | BLK, SH2D1B, SHC1
EFYGpYMTMDRP [D11] | PI3K1_C | 
EGPLpYVIVEAA [F13] | ITK, MATK, PLCG2_N, RASA1_N, SYK_C | ABL2, PLCG2_C, PTPN11_N, SH2D1B
EGSApYEEVPTS [G20] | BRK, FGR, LYN, NCK1, SH2D1B, SHC1, YES | BLK, FER, FYN, HCK, GRB7, LCK
EHIPpYTHMNGG [B06] |  | PI3K1_C
ELILpYTRKRDS [F20] | BCAR3, BRDG1, MIST, PLCG2_N, SHF, TENC1 | BMX, DAPP1, PLCG2_C, PTPN11_C, RASA1_C, SHB, SHD
ELSNpYICMGGK [C01] | PI3K1_C | 
ENSLpYSPTWEG [H14] | ABL2, FYN, LYN, NCK1, SHC1, VAV1 | ABL1, BLK, LCK, SH2D1B, SHIP1
EQDEpYDIPRHL [H10] | BRK, CRK, CRKL, FGR, FYN, LCK, LYN, RIN1, SHC1, YES | ABL1, BLK, HCK, PI3K1_N, SH2D1B, SHIP1, SRC
ETDYpYRKGGKG [B02] | BCAR3, BRDG1, BRK, TENC1 | BMX, MIST, PLCG2_N, RIN1, SHF, SYK_C
EVSFpYYSEENK [B15] | DAPP1, ITK, PLCG2_C, RASA1_C, Sh2b, SHB, SHE, SYK_C, VAV1 | ABL1, BLK, MATK, RASA1_N
EYRKpYGGAKLN [B07] | BCAR3, BMX, BRDG1, BRK, FER, PLCG2_N, TENC1 | ITK, MIST, PTPN11_C, RIN1, SHF, SHD, SYK_C
FAQLpYRSLMYS [G18] | BRDG1, MIST, Sh2b, SH2D2A, SHB, SHF, SHD, TENC1, ZAP70_N | BMX, DAPP1, GADS, GRAP, PLCG2_N, PTPN11_C, SYK_C
FESRpYQQPFED [H06] | ABL1, ABL2, CRK, CRKL, HCK, ITK, NCK1, RASA1_N, RASA1_C, VAV1 | MATK, PLCG2_N, SH2D2A, SRC
FKRSpYEEHIPY [B05] | SHB, SHF, SHD, SHE | BRDG1, TENC1
GDITpYGQFAQL [G17] |  | GRB7
GGEFpYGYMTMD [D10] | BCAR3, DAPP1, GRB7, PLCG2_C, SLNK | BMX, MATK, RASA1_N, RASA1_C
GGPLpYVLVEYA [F07] | MIST, RASA1_N, SHE, SYK_C, ZAP70_N | ITK, SHD
GGSPpYPGIPVE [F01] | ZAP70_N | 
GLDEpYDEVPMP [A05] | NCK1 | BRK, FER
GTEEpYMKMDLG [C18] |  | PI3K1_C
GVSEpYELPEDP [E05] | BRK, NCK1, PLCG2_C, VAV1, YES | BLK, BMX, DAPP1, FER, FGR, LCK, LYN, RIN1, SH3BP2, SHC1
GYPRpYPSFGDA [G01] |  | ZAP70_N
